The supplement of paper PMC11061612

Experiments:
Assay in all cases: Bliss excess, mean over the matrix (fraction); higher = more synergy
AM-38 (Glioblastoma) = system: AM-38 (Glioblastoma)
Procedure, shortened: (§1)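 Cell lines grown in DMEM/F12 or RPMI with 10% FBS were plated in 1536-well plates and held 24 hours at 37°C, 5% CO2 before 72 hours of exposure to two-drug dose matrices, with DMSO typically at 0.2%. CellTiter-Glo 2.0 luminescence gave viability, which was converted to inhibition. Vehicle wells were set to 0 and blank wells to 1. Combination Emax is the second-highest inhibition in the matrix, and Bliss excess is the observed combination effect minus the expected EA + EB − EA·EB, where EA and EB are the single-agent effects.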

[1] = system: BxPC-3 (Pancreatic Carcinoma)
Procedure, shortened: as §1

[2] = system: CL-11 (Colorectal Carcinoma)
Procedure, shortened: as §1

[3] = system: CPC-N (Small Cell Lung Carcinoma)
Procedure, shortened: as §1

[4] = system: DBTRG-05MG (Glioblastoma)
Procedure, shortened: as §1

[5] = system: IA-LM (Non-Small Cell Lung Carcinoma)
Procedure, shortened: as §1

[6] = system: MONO-MAC-6 (Acute Myeloid Leukemia)
Procedure, shortened: as §1

[7] = system: NCI-H1341 (Small Cell Lung Carcinoma)
Procedure, shortened: as §1

[8] = system: NCI-H3118 (Head and Neck Carcinoma)
Procedure, shortened: as §1

[9] = system: NCI-H596 (Other Solid Carcinomas)
Procedure, shortened: as §1

[10] = system: P32-ISH (Burkitt's Lymphoma)
Procedure, shortened: as §1

[11] = system: PA-TU-8988T (Pancreatic Carcinoma)
Procedure, shortened: as §1

[12] = system: PL4 (Pancreatic Carcinoma)
Procedure, shortened: as §1

[13] = system: Raji (Burkitt's Lymphoma)
Procedure, shortened: as §1

[14] = system: SCC-4 (Oral Cavity Carcinoma)
Procedure, shortened: as §1

SK-N-SH (Neuroblastoma) = system: SK-N-SH (Neuroblastoma)
Procedure, shortened: as §1

[15] = system: SNU-423 (Hepatocellular Carcinoma)
Procedure, shortened: as §1

[16] = system: SNU-C2B (Colorectal Carcinoma)
Procedure, shortened: as §1

[17] = system: TUR (Acute Myeloid Leukemia)
Procedure, shortened: as §1

WM35 (Melanoma) = system: WM35 (Melanoma)
Procedure, shortened: as §1

SMILES	Bliss excess (AM-38 (Glioblastoma))	Bliss excess [1]	Bliss excess [2]	Bliss excess [3]	Bliss excess [4]	Bliss excess [5]	Bliss excess [6]	Bliss excess [7]	Bliss excess [8]	Bliss excess [9]	Bliss excess [10]	Bliss excess [11]	Bliss excess [12]	Bliss excess [13]	Bliss excess [14]	Bliss excess (SK-N-SH (Neuroblastoma))	Bliss excess [15]	Bliss excess [16]	Bliss excess [17]	Bliss excess (WM35 (Melanoma))
CN(CCO)CC[C@H](CSc1ccccc1)Nc1ccc(S(=O)(=O)NC(=O)c2ccc(N3CCC([C@@H](O)c4ccccc4-c4ccc(Cl)cc4)CC3)cc2)cc1S(=O)(=O)C(F)(F)F [AZD4320] + C1CN(CCC1(C(=O)N[C@@H](CCO)C2=CC=C(C=C2)Cl)N)C3=NC=NC4=C3C=CN4 [Capivasertib] (first compound max 1 µM, 7x7, partner max 3 µM)	-0.0484	-0.0395	-0.0496	-0.0158	-0.047	-0.0888	-0.0438	-0.0203	-0.0476	-0.0509	0.001	-0.0315	-0.0712	-0.0109	-0.0454	-0.0363	-0.0338	-0.0305	-0.0062	-0.017
CN(CCO)CC[C@H](CSc1ccccc1)Nc1ccc(S(=O)(=O)NC(=O)c2ccc(N3CCC([C@@H](O)c4ccccc4-c4ccc(Cl)cc4)CC3)cc2)cc1S(=O)(=O)C(F)(F)F [AZD4320] + C=CCn1c(=O)c2cnc(Nc3ccc(N4CCN(C)CC4)cc3)nc2n1-c1cccc(C(C)(C)O)n1 [AZD1775] (first compound max 1 µM, partner max 1 µM)	0.0931	0.0575	-0.0201	0.0249	0.0555	0.0161	0.117	0.0676	-0.0226	0.0361	0.107	0.0011	-0.0586	-0.0028	0.0838	-0.0141	-0.0129	-0.0143	0.0015	-0.0178
CN(CCO)CC[C@H](CSc1ccccc1)Nc1ccc(S(=O)(=O)NC(=O)c2ccc(N3CCC([C@@H](O)c4ccccc4-c4ccc(Cl)cc4)CC3)cc2)cc1S(=O)(=O)C(F)(F)F [AZD4320] + CCN(CCO)CCCOc1ccc2c(Nc3cc(CC(=O)Nc4cccc(F)c4)[nH]n3)ncnc2c1 [AZD2811] (first compound max 1 µM, 7x7, partner max 1 µM)	0.0616	-0.0001	-0.0391	0.0092	0.0363	0.0119	0.145	0.0422	0.002	-0.0631	-0.0231	0.0239	0.0251	0.0111	0.0936	-0.143	-0.0325	-0.0031	0.0393	-0.0084
CN(CCO)CC[C@H](CSc1ccccc1)Nc1ccc(S(=O)(=O)NC(=O)c2ccc(N3CCC([C@@H](O)c4ccccc4-c4ccc(Cl)cc4)CC3)cc2)cc1S(=O)(=O)C(F)(F)F [AZD4320] + CN(C)CCCOc1ccc(-c2ccc3ncc4c(c3c2)n(C2CCOCC2)c(=O)n4C)cn1 [AZD0156] (first compound max 1 µM, 7x7, partner max 1 µM)	0.112	-0.0239	-0.0441	-0.0391	-0.0497	-0.0239	0.0324	0.0517	-0.044	-0.0184	0.0018	-0.005	0.0463	0.0041	-0.0341	-0.0439	-0.0727	-0.0007	-0.0023	-0.0141
CN(CCO)CC[C@H](CSc1ccccc1)Nc1ccc(S(=O)(=O)NC(=O)c2ccc(N3CCC([C@@H](O)c4ccccc4-c4ccc(Cl)cc4)CC3)cc2)cc1S(=O)(=O)C(F)(F)F [AZD4320] + C[C@@H]1COCCN1C2=NC(=NC(=C2)C3(CC3)[S@](=N)(=O)C)C4=C5C=CNC5=NC=C4 [AZD6738] (first compound max 1 µM, 7x7, partner max 10 µM)	0.0052	0.0373	0.0073	0.0146	-0.0221	-0.0404	0.0003	-0.0017	0.0076	-0.047	-0.0092	-0.0006	-0.066	0.0056	-0.0961	-0.0586	-0.0359	-0.0292	-0.014	-0.0182
CN(CCO)CC[C@H](CSc1ccccc1)Nc1ccc(S(=O)(=O)NC(=O)c2ccc(N3CCC([C@@H](O)c4ccccc4-c4ccc(Cl)cc4)CC3)cc2)cc1S(=O)(=O)C(F)(F)F [AZD4320] + C[C@@H](Nc1cc(F)cc(F)c1)c1cc(C(=O)N(C)C)cc2c(=O)cc(N3CCOCC3)oc12 [AZD8186] (first compound max 1 µM, 7x7, partner max 3 µM)	-0.0033	0.0345	-0.0011	0.0273	0.02	0.0085	0.0342	0.0517	0.0019	-0.0892	0.0526	-0.005	-0.0411	0.0133	-0.0437	-0.071	-0.0628	0.0342	0.0019	0.047
CN(CCO)CC[C@H](CSc1ccccc1)Nc1ccc(S(=O)(=O)NC(=O)c2ccc(N3CCC([C@@H](O)c4ccccc4-c4ccc(Cl)cc4)CC3)cc2)cc1S(=O)(=O)C(F)(F)F [AZD4320] + Cc1cc2ncnn2cc1Nc1ncc2c(n1)n(C1CCOCC1)c(=O)n2C [AZD7648] (first compound max 1 µM, 7x7, partner max 10 µM)	-0.003	-0.024	-0.033	0.0364	-0.0015	-0.0482	0.0106	0.0254	-0.0392	-0.0422	0.0076	-0.043	-0.0631	0.0189	-0.0568	0.0283	-0.0311	-0.0126	0.0088	-0.0122
CN(CCO)CC[C@H](CSc1ccccc1)Nc1ccc(S(=O)(=O)NC(=O)c2ccc(N3CCC([C@@H](O)c4ccccc4-c4ccc(Cl)cc4)CC3)cc2)cc1S(=O)(=O)C(F)(F)F [AZD4320] + Cn1cnc2c(F)c(Nc3ccc(Br)cc3Cl)c(C(=O)NOCCO)cc21 [Selumetinib] (first compound max 1 µM, 7x7, partner max 3 µM)	0.0746	0.0749	0.0489	-0.0185	0.0074	0.0652	0.0401	0.0615	0.0807	-0.0441	0.044	0.0561	0.0473	0.0188	0.054	0.0457	-0.0228	0.0528	0.0029	0.154
COc1nnc2ccc(N3CCC(c4ccc(OCCN5CCN(C)C(=O)[C@H]5C)cc4)CC3)nn12 [AZD5153] + C=CCn1c(=O)c2cnc(Nc3ccc(N4CCN(C)CC4)cc3)nc2n1-c1cccc(C(C)(C)O)n1 [AZD1775] (first compound max 1 µM, partner max 1 µM)	-0.0594	-0.028	-0.0376	-0.0862	-0.0053	-0.0554	-0.0323	-0.0121	-0.0981	-0.131	-0.0649	-0.0738	0.0251	-0.105	-0.0421	-0.0602	-0.0459	-0.035	-0.0252	-0.0242
COc1nnc2ccc(N3CCC(c4ccc(OCCN5CCN(C)C(=O)[C@H]5C)cc4)CC3)nn12 [AZD5153] + CC1(C)CCC(CN2CCN(c3ccc(C(=O)NS(=O)(=O)c4ccc(NCC5CCOCC5)c([N+](=O)[O-])c4)c(Oc4cnc5[nH]ccc5c4)c3)CC2)=C(c2ccc(Cl)cc2)C1 [Venetoclax] (first compound max 1 µM, 7x7, partner max 1 µM)	-0.135	-0.0745	-0.0302	0.0046	-0.0832	-0.0639	0.0179	-0.03	-0.0517	-0.0701	-0.0067	-0.0254	0.0064	-0.0247	-0.0765	0.0011	-0.0223	-0.0598	-0.0224	-0.0097
COc1nnc2ccc(N3CCC(c4ccc(OCCN5CCN(C)C(=O)[C@H]5C)cc4)CC3)nn12 [AZD5153] + CCN(CCO)CCCOc1ccc2c(Nc3cc(CC(=O)Nc4cccc(F)c4)[nH]n3)ncnc2c1 [AZD2811] (first compound max 1 µM, 7x7, partner max 1 µM)	0.039	-0.0244	-0.0529	-0.0601	-0.0036	-0.103	0.0519	0.0041	-0.0437	-0.0612	-0.0959	0.0086	-0.0333	0.0314	-0.109	-0.0658	-0.0417	-0.0223	0.131	-0.016
